Assays:
[1] = target: Sodium-dependent dopamine transporter (Homo sapiens, UniProt Q01959); assay: Displacement of [125I]RTI55 from cloned human DAT expressed in HEK293 cells; type: cell-based
[2] = target: Sodium-dependent serotonin transporter (Homo sapiens, UniProt P31645); assay: biochemical; type: cell-based, HEK293
[3] = target: Sodium-dependent noradrenaline transporter (Homo sapiens, UniProt P23975); assay: Displacement of [125I]RTI55 from cloned human NET expressed in HEK293 cells; type: cell-based
Sequence of Sodium-dependent noradrenaline transporter (P23975 whole entry): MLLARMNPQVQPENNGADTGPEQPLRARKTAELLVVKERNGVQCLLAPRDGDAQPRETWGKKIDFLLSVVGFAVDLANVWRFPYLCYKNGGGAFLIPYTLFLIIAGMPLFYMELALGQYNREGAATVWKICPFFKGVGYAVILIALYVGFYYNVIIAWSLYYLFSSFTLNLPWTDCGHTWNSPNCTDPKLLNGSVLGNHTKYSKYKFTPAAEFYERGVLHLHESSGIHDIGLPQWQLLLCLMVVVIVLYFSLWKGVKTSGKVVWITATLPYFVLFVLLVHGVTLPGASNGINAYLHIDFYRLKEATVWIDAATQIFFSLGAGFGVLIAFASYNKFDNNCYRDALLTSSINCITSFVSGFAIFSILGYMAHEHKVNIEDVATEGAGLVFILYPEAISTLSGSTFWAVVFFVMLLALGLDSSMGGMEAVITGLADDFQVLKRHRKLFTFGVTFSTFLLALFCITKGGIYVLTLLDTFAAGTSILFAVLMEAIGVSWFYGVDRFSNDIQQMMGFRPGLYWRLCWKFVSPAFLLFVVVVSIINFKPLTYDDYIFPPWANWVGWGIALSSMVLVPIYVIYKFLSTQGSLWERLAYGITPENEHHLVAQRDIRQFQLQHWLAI

Mus musculus [4] = assay: Antidepressant activity in ip dosed mouse assessed as stimulation of locomotor activity relative to cocaine; type: functional
Mus musculus [5] = assay: Antidepressant activity in ip dosed mouse assessed as time to reach peak stimulation of locomotor activity; type: functional
Mus musculus [6] = assay: Antidepressant activity in ip dosed mouse assessed as duration of locomotor activity; type: functional
Rattus norvegicus [7] = assay: Effect on behavioural activity in rat assessed as cocaine-induced lever response at 10 mg/kg, ip pretreated with cocaine for 45 mins by drug-discrimination studies; type: functional; details: route intraperitoneal
Rattus norvegicus [8] = assay: Effect on behavioural activity in rat assessed as cocaine-induced lever response at 100 mg/kg, ip pretreated with cocaine for 45 mins by drug-discrimination studies; type: functional; details: route intraperitoneal
Mus musculus [9] = assay: Antidepressant activity in ip dosed mouse assessed as stimulation of locomotor activity; type: functional
Rattus norvegicus [10] = assay: Effect on behavioural activity in rat assessed as cocaine-induced lever response at 10 mg/kg, ip pretreated with cocaine for 80 mins by drug-discrimination studies; type: functional; details: route intraperitoneal
Rattus norvegicus [11] = assay: Effect on behavioural activity in rat assessed as cocaine-induced lever response at 25 mg/kg, ip pretreated with cocaine for 80 mins by drug-discrimination studies; type: functional; details: route intraperitoneal
Rattus norvegicus [12] = assay: Effect on behavioural activity in rat assessed as cocaine-induced lever response at 50 mg/kg, ip pretreated with cocaine for 80 mins by drug-discrimination studies; type: functional; details: route intraperitoneal
Rattus norvegicus [13] = assay: Effect on behavioural activity in rat assessed as cocaine-induced lever response at 100 mg/kg, ip pretreated with cocaine for 80 mins by drug-discrimination studies; type: functional; details: route intraperitoneal

Sequence of Sodium-dependent dopamine transporter (Q01959 whole entry): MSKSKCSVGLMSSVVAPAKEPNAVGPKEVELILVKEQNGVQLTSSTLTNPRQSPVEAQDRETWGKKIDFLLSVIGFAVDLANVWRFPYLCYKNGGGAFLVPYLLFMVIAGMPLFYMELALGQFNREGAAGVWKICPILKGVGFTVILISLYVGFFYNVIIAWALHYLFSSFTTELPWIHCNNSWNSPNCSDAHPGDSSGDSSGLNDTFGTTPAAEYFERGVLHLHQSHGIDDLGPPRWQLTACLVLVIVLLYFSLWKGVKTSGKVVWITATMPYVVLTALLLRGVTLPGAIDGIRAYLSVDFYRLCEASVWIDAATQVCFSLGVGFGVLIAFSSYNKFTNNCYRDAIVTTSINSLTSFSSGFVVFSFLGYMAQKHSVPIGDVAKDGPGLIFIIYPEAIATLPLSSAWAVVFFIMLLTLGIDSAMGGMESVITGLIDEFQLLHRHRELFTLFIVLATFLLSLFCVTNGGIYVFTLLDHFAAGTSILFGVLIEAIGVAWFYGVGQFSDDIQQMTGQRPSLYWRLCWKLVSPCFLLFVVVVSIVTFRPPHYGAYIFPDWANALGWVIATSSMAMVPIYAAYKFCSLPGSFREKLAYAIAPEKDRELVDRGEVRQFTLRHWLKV
Sequence of Sodium-dependent serotonin transporter (P31645 whole entry): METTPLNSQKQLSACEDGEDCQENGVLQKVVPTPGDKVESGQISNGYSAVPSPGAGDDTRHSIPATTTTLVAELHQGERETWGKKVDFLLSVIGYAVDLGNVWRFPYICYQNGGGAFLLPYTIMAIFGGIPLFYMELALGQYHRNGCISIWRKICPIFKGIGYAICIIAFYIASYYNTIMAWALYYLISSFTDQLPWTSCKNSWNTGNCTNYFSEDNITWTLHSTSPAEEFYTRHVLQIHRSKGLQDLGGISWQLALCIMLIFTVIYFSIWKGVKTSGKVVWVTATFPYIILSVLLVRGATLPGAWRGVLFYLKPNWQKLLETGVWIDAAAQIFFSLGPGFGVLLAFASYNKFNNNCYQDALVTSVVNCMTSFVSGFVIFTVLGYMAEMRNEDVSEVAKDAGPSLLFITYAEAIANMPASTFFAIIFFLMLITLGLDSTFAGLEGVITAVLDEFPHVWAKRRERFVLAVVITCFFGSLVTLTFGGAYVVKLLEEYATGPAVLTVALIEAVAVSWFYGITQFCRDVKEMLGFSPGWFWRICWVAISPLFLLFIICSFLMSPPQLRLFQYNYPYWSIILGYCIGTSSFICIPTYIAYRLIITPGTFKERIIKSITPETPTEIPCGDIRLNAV

SMILES	Ki [1] [µM]	Ki [2] [µM]	Ki [3] [µM]	Activity (Mus musculus [4]) [%]	Time to peak locomotor stimulation (Mus musculus [5]) [min]	Time (Mus musculus [6]) [min]	Activity (Rattus norvegicus [7]) [%]	Activity (Rattus norvegicus [8]) [%]	ED50 (Mus musculus [9]) [mg/kg]	Activity (Rattus norvegicus [10]) [%]	Activity (Rattus norvegicus [11]) [%]	Activity (Rattus norvegicus [12]) [%]	Activity (Rattus norvegicus [13]) [%]
CC(NC(C)(C)C)C(=O)c1ccc(F)c(F)c1 (configuration not stated)	> 10	> 10	> 10	58	10	60	1.7	63.9	–	–	–	–	–
CC(NC(C)(C)C)C(=O)c1ccc(Br)cc1 (configuration not stated)	–	–	> 10	54	140	160	–	–	29.5	1.7	16.7	20	0.5

Reference: ChEMBL document CHEMBL1156106 (J Med Chem, 2009)
